Measurements: patent US20190259469A1, “Method for Evaluating Genotoxicity of Substance” (priority 2017, published 2019)
Read-outs that look alike come from different tables or passages of the source.

Legend:
Salmonella TA100 strain [1] = format: cell-based, S. typhimurium; conditions: for The number of revertants: mean and standard deviation of 3 plates
Procedure: (§1) In this Example, the genotoxicity of a mutagen was analyzed by qualitatively and quantitatively analyzing mutation patterns in the genome of an organism exposed to the mutagen according to the analysis method of the present invention. The mutagen used was ethylnitrosourea (ENU, CAS No. 759-73-9). A Salmonella TA100 strain which is available for detection of a base pair substitution mutation and is routinely used in the Ames test was used as the organism to be exposed to the mutagen. The experiment was conducted in 3 independent operations to prepare samples (n=3).
(§2) The exposure to the mutagen was carried out in conformity to the preincubation method of the Ames test (K. Mortelmans et al., Mutat. Res. —Fundam. Mol. Mech. Mutagen., 2000, 455, 29-60). TA100 strain was inoculated to 2 mL of Nutrient Broth No. 2 (manufactured by Oxoid Ltd.) and shake-cultured at 37° C. at 180 rpm for 4 hours to obtain a preculture solution having an O.D. 660 value of 1.0 or more. ENU (54%; manufactured by Sigma-Aldrich Co. LLC) was diluted with dimethyl sulfoxide (DMSO; manufactured by Wako Pure Chemical Industries, Ltd.). One hundred μL of the ENU solution diluted into an appropriate concentration, 500 μL of a 0.1 M phosphate buffer, and 100 μL of the preculture solution were added into a test tube (ENU concentration: 67.5, 135, 270, 405, 540, 810, and 1080 μg/tube), and shake-cultured at 100 rpm for 20 minutes in a water bath of 37° C. For a control group, 100 μL of a solvent (DMSO) was added instead of the ENU solution. After the shake culture for 20 minutes, the test tube containing the culture solution was taken out of the water bath. Fifty μL of the culture solution was added to 2 mL of a nutrient broth solution dispensed in advance, and additionally cultured at 37° C. at 180 rpm for 14 hours. Then, 1 mL of the bacterial suspension was recovered and centrifuged at 7,500 rpm for 5 minutes. The supernatant was removed to recover bacterial cells.
For the Ames test, a bacterial suspension exposed to ENU under the same conditions as above was also prepared. Two mL of top agar (containing 1% NaCl, 1% agar, 0.05 mM histidine and 0.05 mM biotin) warmed to 45° C. was added thereto, and the bacterial cells were suspended by vortex. Then, the suspension was layered over a minimal glucose agar medium (Tesmedia (Registered trademark) AN; manufactured by Oriental Yeast Co., Ltd.). The obtained plate was cultured at 37° C. for 48 hours. Then, observed colonies were counted.
The data was indicated by a mean and standard deviation of measurement values from 3 plates.

Salmonella TA100 strain [2] = assay: Mutation analysis by high-throughput sequencing of total DNA of TA100 strain exposed to mutagen; format: cell-based, S. typhimurium
Procedure: as §1, §2
From the bacterial cells obtained in the paragraph 1., total DNA was recovered using DNeasy Blood & Tissue Kit (manufactured by Qiagen N.V.) according to the recommended protocol.
The total DNA solutions recovered in the paragraph 2. from the control group and the ENU treatment groups were sequenced using a next-generation sequencer HiSeq 2500 (manufactured by Illumina, Inc.) according to the standard protocol. In this operation, DNA was fragmented into an average length of approximately […] by ultrasonic treatment. Adaptors were added to both ends of each fragment. The fragments were sequenced at a read length of 2×125 bp. 5.0-Gbp nucleotide sequence information per sample was obtained on average.
The editing of read sequences obtained by the sequencing and mutation analysis were conducted using Cutadapt software, PEAR software, Bowtie 2 software, Samtools software, and a program created using a programming language Python according to the conceptual diagram of analysis flow shown in Schematic diagram 2 in the same way as in Example 1. In this Example, PCR duplicates were removed using Picard tools (broadinstitute.github.io/picard/) after mapping using the Bowtie 2 software.
A reference sequence for the mapping using the Bowtie 2 software was constructed on the basis of the genomic sequence of the S. typhimurium TA100 strain. First, DNA was extracted from the TA100 strain and sequenced using a next-generation sequencer HiSeq 2500 (manufactured by Illumina, Inc.) according to the standard protocol. In this operation, the DNA was fragmented into an average length of approximately 300 bp by ultrasonic treatment. Adaptors were added to both ends of each fragment. The fragments were sequenced at a read length of 2×125 bp. The obtained read sequences were mapped to the genomic sequence of a S. typhimurium LT-2 strain, a pSLT plasmid sequence (GCA000006945.2), and a R46 plasmid sequence (NC_003292.1), followed by mutation detection using Samtools software. […]

[3] = ENU 540 μg/tube, control subtracted

With `CCN(N=O)C(N)=O` [ENU, ethylnitrosourea] the “The number of revertants” value (Salmonella TA100 strain [1]; ENU 67.5 μg/plate) was 258 ± 2.5, the “The number of revertants” value (Salmonella TA100 strain [1]; ENU 135 μg/plate) was 659 ± 113.9 and the “The number of revertants” value (Salmonella TA100 strain [1]; ENU 270 μg/plate) was 3320 ± 734.4. The “The number of revertants” value (Salmonella TA100 strain [1]; ENU 405 μg/plate) was 4994 ± 455.6, the “The number of revertants” value (Salmonella TA100 strain [1]; ENU 540 μg/plate) was 5051 ± 173.0 and the “The number of revertants” value (Salmonella TA100 strain [1]; ENU 810 μg/plate, growth inhibition on plate) was 3102 ± 883.0. For the same molecule, the “The number of revertants” value (Salmonella TA100 strain [1]; ENU 1080 μg/plate, growth inhibition on plate) was 503 ± 190.9, the “Change in the number of revertants by exposure” value (Salmonella TA100 strain [1]; ENU 67.5 to 1080 μg/plate against DMSO) was “Increase in the number of revertants was found” and the “Increased mutation frequencies by sequence context analysis (96 mutation types), C>T mutation” value (Salmonella TA100 strain [2]; 3-base context, FIG. 7 and FIG. 8) was “larger increase in mutation frequency was found in a context with a pyrimidine base (C or T) located at 3′ side to the C”. The “Ratio of AT > CG mutation pattern to the whole of increased mutation frequencies (mutation spectrum)” value (Salmonella TA100 strain [2]; [3]) was 2.36%, the “Ratio of AT > GC mutation pattern to the whole of increased mutation frequencies (mutation spectrum)” value (Salmonella TA100 strain [2]; [3]) was 12.4% and the “Ratio of AT > TA mutation pattern to the whole of increased mutation frequencies (mutation spectrum)” value (Salmonella TA100 strain [2]; [3]) was 11.5%. For the same molecule, the “Ratio of GC > AT mutation pattern to the whole of increased mutation frequencies (mutation spectrum)” value (Salmonella TA100 strain [2]; [3]) was 73.7%, the “Increased mutation frequencies of GC base pair mutation patterns” value (Salmonella TA100 strain [2]; ENU 135, 270, 405 and 540 μg/tube, FIG. 4A) was “increase in the frequency of GC>AT mutation was found” and the “Increased mutation frequencies of AT base pair mutation patterns” value (Salmonella TA100 strain [2]; ENU 135, 270, 405 and 540 μg/tube, FIG. 4B) was “increase in the frequencies of AT>TA and AT>GC mutations was mainly found”.
